# From ChEMBL document CHEMBL1158105, “Triterpene saponins from clematis mandshurica” (J Nat Prod, 2006)
# Target: T1, Prostaglandin G/H synthase 2 (Mus musculus, UniProt Q05769)
# T1 sequence (Q05769 whole entry): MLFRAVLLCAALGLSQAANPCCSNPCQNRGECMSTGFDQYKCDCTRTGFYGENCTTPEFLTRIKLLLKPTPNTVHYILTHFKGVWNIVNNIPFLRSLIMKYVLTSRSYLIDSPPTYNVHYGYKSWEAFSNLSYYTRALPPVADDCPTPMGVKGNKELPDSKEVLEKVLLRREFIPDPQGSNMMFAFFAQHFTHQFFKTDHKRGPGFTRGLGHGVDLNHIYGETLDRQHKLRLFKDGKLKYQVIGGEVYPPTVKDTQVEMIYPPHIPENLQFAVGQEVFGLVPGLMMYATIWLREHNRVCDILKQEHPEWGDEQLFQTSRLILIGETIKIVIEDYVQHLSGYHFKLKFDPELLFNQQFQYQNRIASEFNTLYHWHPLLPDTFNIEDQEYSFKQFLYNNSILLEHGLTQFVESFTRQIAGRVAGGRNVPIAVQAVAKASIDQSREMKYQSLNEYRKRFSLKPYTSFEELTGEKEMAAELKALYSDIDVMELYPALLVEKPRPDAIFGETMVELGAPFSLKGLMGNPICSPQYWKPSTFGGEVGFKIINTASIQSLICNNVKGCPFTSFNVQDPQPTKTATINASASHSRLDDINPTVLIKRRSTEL
# Assay: Inhibition of LPS-induced COX2 activity in C57BL/6J mouse peritoneal macrophages by RIA
row,IC50 [µM],Compound
1,2.66,COc1ccc(/C=C/C(=O)O[C@@H]2[C@@H](O)[C@H](O[C@@H]3[C@@H](O)[C@H](O[C@@H]4CO[C@@H](O[C@@H]5[C@@H](O)[C@H](C)O[C@@H](O[C@H]6[C@H](O[C@H]7CC[C@]8(C)[C@H]9CC=C%10[C@@H]%11CC(C)(C)CC[C@]%11(C(=O)O[C@@H]%11O[C@H](CO[C@@H]%12O[C@H](CO)[C@@H](O[C@@H]%13O[C@@H](C)[C@H](O)[C@@H](O)[C@H]%13O)[C@H](O)[C@H]%12O)[C@@H](O)[C@H](O)[C@H]%11O)CC[C@@]%10(C)[C@]9(C)CC[C@H]8C7(C)C)OC[C@H](O)[C@@H]6O)[C@@H]5O)[C@H](O)[C@@H]4O)O[C@H](CO)[C@H]3O)O[C@H](CO[C@@H]3O[C@@H](C)[C@H](O)[C@@H](O)[C@H]3O)[C@H]2O)cc1O [CLEMATOMANDSHURICA SAPONIN A]
2,2.58,COc1cc(/C=C/C(=O)O[C@H]2[C@H](O[C@@H]3[C@@H](O)[C@H](O[C@@H]4CO[C@@H](O[C@@H]5[C@@H](O)[C@H](C)O[C@@H](O[C@H]6[C@H](O[C@H]7CC[C@]8(C)[C@H]9CC=C%10[C@@H]%11CC(C)(C)CC[C@]%11(C(=O)O[C@@H]%11O[C@H](CO[C@@H]%12O[C@H](CO)[C@@H](O[C@@H]%13O[C@@H](C)[C@H](O)[C@@H](O)[C@H]%13O)[C@H](O)[C@H]%12O)[C@@H](O)[C@H](O)[C@H]%11O)CC[C@@]%10(C)[C@]9(C)CC[C@H]8C7(C)C)OC[C@H](O)[C@@H]6O)[C@@H]5O)[C@H](O)[C@@H]4O)O[C@H](CO)[C@H]3O)O[C@H](CO[C@@H]3O[C@@H](C)[C@H](O)[C@@H](O)[C@H]3O)[C@@H](O)[C@@H]2O)ccc1O [CLEMATOMANDSHURICA SAPONIN B]
